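A five-concentration, 48-hour dose response in 96-well plates underlies each endpoint, interpolated linearly between surrounding concentrations. GI50 marks 50% less growth.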 Activity calls are given as the source filed them. No stated cut-off is given here; in the data, active = GI50 up to about 1.1 µM and inactive = higher.
Tests used:
Assay in all cases: DTP human tumour cell line panel, 48 h
A498 = system: A498
ACHN = system: ACHN
COLO 205 = system: COLO 205
DU-145 = system: DU-145
EKVX = system: EKVX
HOP-62 = system: HOP-62
HT-29 = system: HT-29
Hs-578T = system: Hs-578T
K562 = system: K562
MDA-MB-231 = system: MDA-MB-231
NCI/ADR-RES = system: NCI/ADR-RES
OVCAR-3 = system: OVCAR-3
OVCAR-5 = system: OVCAR-5
OVCAR-8 = system: OVCAR-8
PC-3 = system: PC-3
RPMI-8226 = system: RPMI-8226
SF-295 = system: SF-295
SK-MEL-28 = system: SK-MEL-28
SNB-19 = system: SNB-19
UO-31 = system: UO-31

Measured: GI50

CCC(c1nc2ccccc2c(=O)n1NC(=O)C(C)(C)C)C1(O)CCCCC1 (stereo not given)
inactive: A498 > 100 µM | ACHN > 100 µM | COLO 205 > 100 µM | DU-145 > 100 µM | EKVX > 100 µM | HOP-62 > 100 µM | HT-29 > 100 µM | Hs-578T > 100 µM | K562 > 100 µM | MDA-MB-231 > 100 µM | NCI/ADR-RES > 100 µM | OVCAR-3 > 100 µM | OVCAR-5 > 100 µM | OVCAR-8 > 100 µM | PC-3 > 100 µM | RPMI-8226 > 100 µM | SF-295 > 100 µM | SK-MEL-28 > 100 µM | SNB-19 > 100 µM | UO-31 > 100 µM

CC(O)(CCCCCl)c1nc2ccccc2s1 (stereo not given)
inactive: A498 > 100 µM | ACHN > 100 µM | COLO 205 > 100 µM | DU-145 > 100 µM | EKVX 52.4 µM | HOP-62 > 100 µM | HT-29 65.9 µM | Hs-578T > 100 µM | K562 89.9 µM | MDA-MB-231 96.4 µM | NCI/ADR-RES 98.2 µM | OVCAR-3 > 100 µM | OVCAR-5 > 100 µM | OVCAR-8 > 100 µM | PC-3 34.9 µM | RPMI-8226 97.5 µM | SF-295 > 100 µM | SK-MEL-28 > 100 µM | SNB-19 > 100 µM | UO-31 64.1 µM

CCCCCCCCCCCCCCCCNc1ccn(C2CC(O)C(COC(c3ccccc3)(c3ccccc3)c3ccc(OC)cc3)O2)c(=O)n1 (stereo not given)
inactive: A498 > 100 µM | ACHN > 100 µM | COLO 205 > 100 µM | DU-145 > 100 µM | EKVX > 100 µM | HOP-62 > 100 µM | HT-29 > 100 µM | Hs-578T > 100 µM | K562 > 100 µM | MDA-MB-231 > 100 µM | NCI/ADR-RES > 100 µM | OVCAR-3 > 100 µM | OVCAR-5 > 100 µM | OVCAR-8 > 100 µM | PC-3 > 100 µM | RPMI-8226 > 100 µM | SF-295 > 100 µM | SK-MEL-28 > 100 µM | SNB-19 > 100 µM | UO-31 20.9 µM

From ChEMBL document CHEMBL1201862, “PubChem BioAssay data set” (2004)
